Measurements from PMC2888773 (Cellular microbiology, 2010).

Molecular target: Ov-CF-1 (cathepsin F) (Opisthorchis viverrini, UniProt Q5PXS3)
Experiment: fluorogenic release of NHMec
Format: biochemical
Settings: autoactivation at pH 4.5, 37 °C, 1 mM DTT, 1 mM EDTA

Cc1cc(=O)oc2cc(NC(=O)[C@H](CCCNC(=N)N)NC(=O)[C@H](CC(C)C)NC(=O)OCc3ccccc3)ccc12 [Z-Leu-Arg-NHMec]
fluorogenic release of NHMec (ex 380 / em 460 nm): The rate of hydrolysis of Z-Leu-Arg-NHMec
